From ChEMBL document CHEMBL1201862, “PubChem BioAssay data set” (2004)
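Following 48 hours of exposure in 96-well plates, responses at five concentrations were used to interpolate endpoints linearly. GI50 marks 50% less growth.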 The source made the active and inactive calls. Cut-off read from the data, not from the text of the source: active = GI50 up to about 1.1 µM and inactive = higher.

How the values were obtained:
Assay in all cases: DTP human tumour cell line panel, 48 h
[1] = system: SF-295
[2] = system: OVCAR-4
[3] = system: A549
[4] = system: RPMI-8226
[5] = system: UO-31
[6] = system: U-251
[7] = system: HCT-15
[8] = system: OVCAR-8
[9] = system: UACC-257
[10] = system: NCI-H226
[11] = system: EKVX
[12] = system: HOP-92
[13] = system: SNB-19
[14] = system: CCRF-CEM
[15] = system: UACC-62
[16] = system: NCI-H522
[17] = system: KM12
[18] = system: NCI-H460
[19] = system: SK-MEL-2

In the case of `CCCCCCCC(=O)OC[C@@H](C[As](=O)(O)O)OC(=O)CCCCCCC`, the GI50 [1] was 15.1 µM (inactive), the GI50 [2] was 11.9 µM (inactive) and the GI50 [3] was 3.73 µM (inactive). For the same compound, the GI50 [4] was 10.3 µM (inactive), the GI50 [5] was 2.59 µM (inactive) and the GI50 [6] was 5.74 µM (inactive). The GI50 [7] was 10.1 µM, the GI50 [8] was 13.5 µM (inactive) and the GI50 [9] was 16.4 µM (inactive). For the same compound, the GI50 [10] was 6.58 µM (inactive), the GI50 [11] was 26.5 µM (inactive) and the GI50 [12] was 17.2 µM (inactive). The GI50 [13] was 14.2 µM (inactive), the GI50 [14] was 1.88 µM (inactive) and the GI50 [15] was 11.3 µM (inactive). For the same compound, the GI50 [16] was 1.56 µM (inactive).
For `COC(=O)C1=C(C)N2CCCOC2(C)C(C(=O)OC)C1c1cccc(Cl)c1` (stereo not drawn), the GI50 [1] was 21.7 µM (inactive), the GI50 [2] was 56.5 µM (inactive) and the GI50 [17] was 17.9 µM (inactive). For the same compound, the GI50 [3] was > 100 µM (inactive), the GI50 [4] was 14.3 µM (inactive) and the GI50 [5] was 22.3 µM (inactive). The GI50 [18] was 20.5 µM (inactive), the GI50 [8] was 24.9 µM (inactive) and the GI50 [9] was 19.7 µM (inactive). The GI50 [10] was 17.8 µM (inactive), the GI50 [11] was 14 µM (inactive) and the GI50 [12] was 19.1 µM (inactive). For the same compound, the GI50 [13] was 42.3 µM (inactive), the GI50 [14] was 27.7 µM (inactive) and the GI50 [15] was 15.2 µM (inactive). The GI50 [19] was 18.1 µM (inactive).
In the case of `C1=CN2C[n+]3ccc4ccccc4c3N=C2c2ccccc21`, the GI50 [1] was 2.69 µM (inactive), the GI50 [17] was 1.85 µM (inactive) and the GI50 [3] was 1.75 µM (inactive). For the same compound, the GI50 [4] was 2.32 µM (inactive), the GI50 [5] was 21 µM (inactive) and the GI50 [6] was 0.356 µM (active). For the same compound, the GI50 [18] was 3.54 µM (inactive), the GI50 [7] was 66.4 µM and the GI50 [8] was 4.59 µM (inactive). For the same compound, the GI50 [9] was 2.92 µM (inactive), the GI50 [11] was 7.62 µM (inactive) and the GI50 [12] was 2.04 µM (inactive). The GI50 [13] was 2.11 µM (inactive), the GI50 [14] was 3.3 µM (inactive) and the GI50 [15] was 1.93 µM (inactive). The GI50 [16] was 0.622 µM (active) and the GI50 [19] was 2.67 µM (inactive).
With `CCOC(=O)C(=O)Nc1cc(Cl)ccc1Cl` the GI50 [1] was > 100 µM (inactive), the GI50 [2] was > 100 µM (inactive) and the GI50 [17] was > 100 µM (inactive). For the same compound, the GI50 [3] was > 100 µM (inactive), the GI50 [4] was > 100 µM (inactive) and the GI50 [5] was > 100 µM (inactive). The GI50 [6] was > 100 µM (inactive), the GI50 [18] was > 100 µM (inactive) and the GI50 [7] was greater than 100 µM. The GI50 [8] was > 100 µM (inactive), the GI50 [9] was > 100 µM (inactive) and the GI50 [10] was > 100 µM (inactive). For the same compound, the GI50 [11] was > 100 µM (inactive), the GI50 [12] was > 100 µM (inactive) and the GI50 [13] was > 100 µM (inactive). The GI50 [14] was > 100 µM (inactive), the GI50 [15] was > 100 µM (inactive) and the GI50 [16] was > 100 µM (inactive). For the same compound, the GI50 [19] was > 100 µM (inactive).
In the case of `CCC1=C(C(C)=O)[C@@H]2CCCCC[C@@H](C(=O)OC)C2C1=O` (stereo partly drawn), the GI50 [1] was > 100 µM (inactive), the GI50 [2] was > 100 µM (inactive) and the GI50 [17] was > 100 µM (inactive). For the same compound, the GI50 [3] was > 100 µM (inactive), the GI50 [4] was > 100 µM (inactive) and the GI50 [5] was > 100 µM (inactive). For the same compound, the GI50 [6] was > 100 µM (inactive), the GI50 [18] was > 100 µM (inactive) and the GI50 [7] was greater than 100 µM. For the same compound, the GI50 [8] was > 100 µM (inactive), the GI50 [9] was > 100 µM (inactive) and the GI50 [11] was > 100 µM (inactive). The GI50 [12] was > 100 µM (inactive), the GI50 [13] was > 100 µM (inactive) and the GI50 [14] was > 100 µM (inactive). The GI50 [15] was > 100 µM (inactive), the GI50 [16] was > 100 µM (inactive) and the GI50 [19] was > 100 µM (inactive).
For `COc1ccc(-c2ccc(CC(=O)O)cc2)cc1OC`, the GI50 [1] was > 100 µM (inactive), the GI50 [2] was > 100 µM (inactive) and the GI50 [17] was > 100 µM (inactive). For the same compound, the GI50 [3] was > 100 µM (inactive), the GI50 [4] was > 100 µM (inactive) and the GI50 [5] was > 100 µM (inactive). The GI50 [6] was > 100 µM (inactive), the GI50 [18] was > 100 µM (inactive) and the GI50 [8] was > 100 µM (inactive). For the same compound, the GI50 [9] was > 100 µM (inactive), the GI50 [10] was > 100 µM (inactive) and the GI50 [11] was > 100 µM (inactive). The GI50 [12] was > 100 µM (inactive), the GI50 [13] was > 100 µM (inactive) and the GI50 [14] was > 100 µM (inactive). The GI50 [15] was > 100 µM (inactive), the GI50 [16] was > 100 µM (inactive) and the GI50 [19] was > 100 µM (inactive).
`CC(C)C1=CC23CCC4C(C)(C(=O)O)CCCC4(C)C2CC1C1C(=O)N(CCCCCCN2C(=O)C4C5CC6C7(C)CCCC(C)(C(=O)O)C7CCC6(C=C5C(C)C)C4C2=O)C(=O)C13` (stereo not drawn) was tested, and the GI50 [2] was 15.7 µM (inactive), the GI50 [17] was 11.4 µM (inactive) and the GI50 [3] was 9.31 µM (inactive). For the same compound, the GI50 [4] was 13.7 µM (inactive), the GI50 [5] was > 10 µM (inactive) and the GI50 [6] was 4.08 µM (inactive). For the same compound, the GI50 [7] was 14.8 µM, the GI50 [8] was 9.2 µM (inactive) and the GI50 [10] was > 10 µM (inactive). The GI50 [11] was 7.4 µM (inactive), the GI50 [12] was 21.7 µM (inactive) and the GI50 [13] was 10.5 µM (inactive). The GI50 [14] was 7.29 µM (inactive), the GI50 [15] was 37.8 µM (inactive) and the GI50 [16] was 12 µM (inactive). The GI50 [19] was 13.8 µM (inactive).
In the case of `CO[C@@]12[C@H](COC(N)=O)C3=C(C(=O)C(C)=C(N)C3=O)N1C[C@@H]1N[C@@H]12` [MITOMYCIN], the GI50 [2] was 3.56 µM (inactive), the GI50 [17] was 2.22 µM (inactive) and the GI50 [4] was 2.4 µM (inactive). For the same compound, the GI50 [5] was 1.87 µM (inactive), the GI50 [7] was 1.29 µM and the GI50 [8] was 1.11 µM (active). For the same compound, the GI50 [9] was 1.21 µM (inactive), the GI50 [10] was 0.714 µM (active) and the GI50 [11] was 4.62 µM (inactive). For the same compound, the GI50 [12] was 3.49 µM (inactive), the GI50 [14] was 0.229 µM (active) and the GI50 [16] was 0.667 µM (active). The GI50 [19] was 1.65 µM (inactive).
